{"source": "paper PMC8231654", "about": "“Evaluation of Cytotoxic and Mutagenic Effects of the Synthetic Cathinones Mexedrone, α-PVP and α-PHP” (International Journal of Molecular Sciences, 2021)", "key": {"[1]": {"tested_on": "mice", "settings": "in mice; cited from earlier work"}, "[2]": {"tested_on": "TK6 cells", "test": "In vitro micronucleus test by flow cytometry, with S9 mix", "type": "cell-based, human", "settings": "3 h + S9 mix, 23 h recovery, 75 and 100 µM", "method": "(§1) The analysis of the MNi frequency was performed using an automated protocol published by Lenzi et al..\n(§2) A total of 10,000 nuclei, derived from viable and proliferating cells, and the corresponding number of MNi were acquired and analyzed by Guava Incyte software. The discrimination between nuclei and MNi occurs on the basis of the different size and intensity of green fluorescence.\n(§3) The MNi frequency (number of MNi/10,000 nuclei) recorded in treated cultures were normalized on those recorded in the concurrent negative control cultures, accounted equal to 1 and expressed as MNi frequency fold increase.\nThe exogenous metabolic activation system employed is a co-factor-supplemented post-mitochondrial fraction (S9 mix) prepared from the livers of rats treated with enzyme-inducing agent Aroclor 1254. The final concentration of S9 in the culture medium was 0.75%.\n(§4) We used the clastogen MMC and the aneuploidogen VINB as positive controls in absence of S9 mix, while CP, a clastogen agent requiring metabolic activation, in presence of S9 mix."}, "[3]": {"tested_on": "serotonin transporter (SERT)", "design": "method as in PMID 25624004, PMID 27799294", "settings": "human embryonic kidney 293 cells; cited from earlier work"}, "[4]": {"tested_on": "TK6 cells", "test": "In vitro micronucleus test by flow cytometry, without S9 mix", "type": "cell-based, human", "settings": "26 h, 75 and 100 µM", "method": "as §1, §2, §3, §4"}, "[5]": {"tested_on": "dopamine (DAT), norepinephrine (NET), and serotonin (SERT) transporters", "design": "method as in PMID 25624004, PMID 27799294", "settings": "human embryonic kidney 293 cells; cited from earlier work"}, "[6]": {"tested_on": "norepinephrine transporter (NET)", "design": "method as in PMID 25624004, PMID 27799294", "settings": "reuptake inhibition, human embryonic kidney 293 cells; cited from earlier work"}, "[7]": {"tested_on": "TK6 cells", "test": "Cytotoxicity analysis (Guava ViaCount, cell viability)", "settings": "26 h, 25-100 µM"}, "[8]": {"tested_on": "TK6 cells", "test": "Cytostasis analysis (Relative Population Doubling)", "type": "cell-based, human", "settings": "26 h; for Relative Population Doubling (RPD): mean ± SEM; for Cytostatic effect / RPD versus OECD threshold (55 ± 5%): all concentrations up to 100 µM", "method": "In parallel, always using the Guava ViaCount Reagent, the number of cells seeded at time 0 and the one measured at the end of the treatment time were used to check the correct replication and to calculate the Population Doublings (PD) values. Subsequently, the PD obtained in the control cultures was compared to that measured in the treated cultures obtaining the Relative Population Doublings (RPD). PD and RPD were calculated with the following formulas:(1) PD=logpost−initial cell number/initial cell number÷log2 (2) RPD=PD in treated cultures/PD in control cutures x 100\nSimilarly, to cytotoxicity, the cytostasis was checked, in order to verify that cell proliferation respected the threshold established by OECD guideline (55 ± 5%)."}, "[9]": {"design": "method as in PMID 26505776, PMID 29963212, PMID 33379373", "settings": "human urine of a drug abuser; cited from earlier work"}, "[10]": {"tested_on": "dopamine transporter (DAT)", "design": "method as in PMID 25624004, PMID 27799294", "settings": "reuptake inhibition, human embryonic kidney 293 cells; cited from earlier work"}, "[11]": {"tested_on": "TK6 cells", "test": "Apoptosis analysis (Guava Nexin assay)", "type": "cell-based, human", "settings": "26 h, all selected concentrations", "method": "The percentage of apoptotic cells was evaluated by the Guava Nexin Assay according to the procedure by Lenzi et al. and Cocchi et al..\nThe reagent contains the 7-aminoactinomycin D (7- AAD), a cells non-permeant dye that allows the discrimination between live and dead cells, and the Annexin-V-PE that allows the identification of apoptotic cells by binding to the phosphatidylserine on the cell surface.\n100 μL of reagent was added to 100 μL of cell suspension (~1 × 10^5 cells) and incubated for 20 min at RT. Then, a total of 2000 events were acquired and analyzed by Guava Nexin software.\nThe apoptotic cell percentages recorded in the cultures treated with synthetic cathinones different concentrations were normalized on those recorded in the untreated control cultures, accounted equal to 1 and expressed as apoptotic fold increase."}, "[12]": {"settings": "cited from earlier work; for mutagenic capacity in terms of increasing the frequency of MNi: synthetic cannabinoids, first study of 2020; for mutagenic potential: psychoactive phenethylamines"}, "[13]": {"tested_on": "DAT", "design": "method as in PMID 27524685", "settings": "monoamine uptake, rats' brain synaptosomes; cited from earlier work"}, "[14]": {"tested_on": "SERT", "design": "method as in PMID 27524685", "settings": "rats' brain synaptosomes; read-out: releasing activity on SERT EC50; cited from earlier work"}, "[15]": {"tested_on": "SERT", "design": "method as in PMID 27524685", "settings": "monoamine uptake, rats' brain synaptosomes; cited from earlier work"}, "[16]": {"tested_on": "NET", "design": "method as in PMID 27524685", "settings": "monoamine uptake, rats' brain synaptosomes; cited from earlier work"}, "[17]": {"tested_on": "rats", "settings": "in rats; cited from earlier work"}, "[18]": {"design": "method as in PMID 23797910, PMID 26014283, PMID 27142261", "settings": "in vitro studies; cited from earlier work"}, "[19]": {"tested_on": "C2C12 myoblasts", "design": "method as in PMID 30925718", "settings": "24 h, concentrations 10 to 20 times higher than in this paper; cited from earlier work"}}, "note": "Where two headings read alike, the source gives them in different places."}
{"smiles": "C[C@H](N)C(=O)c1ccccc1", "note": "[cathinone]", "values": [{"measurement": "mutagenicity", "setting": "[1]", "value": "mutagenicity demonstrated"}]}
{"smiles": "CCCCC(C(=O)c1ccccc1)N1CCCC1", "note": "(stereo not drawn) [α-PHP, alpha-pyrrolidinohexanophenone]", "values": [{"measurement": "MNi frequency fold increase versus negative control", "setting": "[2]", "value": "statistically significant increase was observed only at the highest concentration tested"}, {"measurement": "IC50", "setting": "[3]", "value": "> 10000", "unit": "nM"}, {"measurement": "MNi frequency fold increase versus negative control", "setting": "[4]", "value": "no statistically significant increase"}, {"measurement": "neurotransmitters release", "setting": "[5]", "value": "do not enhance neurotransmitters release"}, {"measurement": "IC50", "setting": "[6]", "value": 40, "unit": "nM"}, {"measurement": "Cell viability / cytotoxic effect versus negative control and OECD threshold (55 ± 5%)", "setting": "[7]", "value": "do not induce any cytotoxic or cytostatic effects"}, {"measurement": "Relative Population Doubling (RPD)", "setting": "[8]; 25 µM", "value": "88.3% ± 1.3"}, {"measurement": "Relative Population Doubling (RPD)", "setting": "[8]; 35 µM", "value": "94.4% ± 1.7"}, {"measurement": "Relative Population Doubling (RPD)", "setting": "[8]; 50 µM", "value": "96.8% ± 3.2"}, {"measurement": "Relative Population Doubling (RPD)", "setting": "[8]; 75 µM", "value": "85.2% ± 3.5"}, {"measurement": "Relative Population Doubling (RPD)", "setting": "[8]; 100 µM", "value": "85.9% ± 5.6"}, {"measurement": "Cytostatic effect / RPD versus OECD threshold (55 ± 5%)", "setting": "[8]", "value": "do not induce any cytotoxic or cytostatic effects"}, {"measurement": "number of glucuronide conjugates identified", "setting": "[9]", "value": 9}, {"measurement": "number of phase I metabolites identified", "setting": "[9]", "value": 19}, {"measurement": "IC50", "setting": "[10]", "value": 20, "unit": "nM"}, {"measurement": "Apoptosis fold increase versus negative control", "setting": "[11]", "value": "never reached a doubling"}]}
{"smiles": "CCCCCn1nc(C(=O)OC23CC4CC(CC(C4)C2)C3)c2ccccc21", "note": "[APINAC]", "values": [{"measurement": "mutagenic capacity in terms of increasing the frequency of MNi", "setting": "[12]", "value": "mutagenic capacity"}]}
{"smiles": "COc1ccc(OC)c(CCN)c1", "note": "[2C-H]", "values": [{"measurement": "mutagenic potential", "setting": "[12]", "value": "proved to be mutagen"}]}
{"smiles": "O=C(Oc1cccc2cccnc12)c1cn(CC2CCCCC2)c2ccccc12", "note": "[BB-22]", "values": [{"measurement": "mutagenic capacity in terms of increasing the frequency of MNi", "setting": "[12]", "value": "mutagenic capacity"}]}
{"smiles": "COc1cc(CCN)c(OC)cc1I", "note": "[2C-I]", "values": [{"measurement": "mutagenic potential", "setting": "[12]", "value": "proved to be mutagen"}]}
{"smiles": "O=C(NC12CC3CC(CC(C3)C1)C2)c1cn(CCCCCF)c2ccccc12", "note": "[STS-135]", "values": [{"measurement": "mutagenic capacity in terms of increasing the frequency of MNi", "setting": "[12]", "value": "mutagenic capacity"}]}
{"smiles": "CNC(COC)C(=O)c1ccc(C)cc1", "note": "(stereo not shown) [Mexedrone, 3-methoxy-2-(methylamino)-1-(4-methylphenyl)propan-1-one]", "values": [{"measurement": "IC50", "setting": "[13]", "value": "~6800", "unit": "nM"}, {"measurement": "MNi frequency fold increase versus negative control", "setting": "[2]", "value": "statistically significant increase at both concentrations tested"}, {"measurement": "EC50", "setting": "[14]", "value": 2500, "unit": "nM"}, {"measurement": "MNi frequency fold increase versus negative control", "setting": "[4]", "value": "significant increase of the MNi frequency at both the concentrations tested"}, {"measurement": "IC50", "setting": "[15]", "value": "~5200", "unit": "nM"}, {"measurement": "IC50", "setting": "[16]", "value": "~8800", "unit": "nM"}, {"measurement": "Cell viability / cytotoxic effect versus negative control and OECD threshold (55 ± 5%)", "setting": "[7]", "value": "do not induce any cytotoxic or cytostatic effects"}, {"measurement": "Relative Population Doubling (RPD)", "setting": "[8]; 25 µM", "value": "97.0% ± 3.2"}, {"measurement": "Relative Population Doubling (RPD)", "setting": "[8]; 35 µM", "value": "92.0% ± 4.2"}, {"measurement": "Relative Population Doubling (RPD)", "setting": "[8]; 50 µM", "value": "88.4% ± 7.9"}, {"measurement": "Relative Population Doubling (RPD)", "setting": "[8]; 75 µM", "value": "95.2% ± 3.5"}, {"measurement": "Relative Population Doubling (RPD)", "setting": "[8]; 100 µM", "value": "90.1% ± 3.6"}, {"measurement": "Cytostatic effect / RPD versus OECD threshold (55 ± 5%)", "setting": "[8]", "value": "do not induce any cytotoxic or cytostatic effects"}, {"measurement": "Apoptosis fold increase versus negative control", "setting": "[11]", "value": "never reached a doubling"}]}
{"smiles": "CNC(C)C(=O)c1ccc(C)cc1", "note": "(stereo not shown) [mephedrone, 4-methyl-N-methyl cathinone]", "values": [{"measurement": "mutagenicity", "setting": "[17]", "value": "mutagenicity demonstrated"}]}
{"smiles": "COc1cc(CCN)c(OC)cc1Br", "note": "[2C-B]", "values": [{"measurement": "mutagenic potential", "setting": "[12]", "value": "proved to be mutagen"}]}
{"smiles": "COc1cc(CCNCc2ccccc2OC)c(OC)cc1Br", "note": "[25B-NBOMe]", "values": [{"measurement": "mutagenic potential", "setting": "[12]", "value": "proved to be mutagen"}]}
{"smiles": "CCCC(C(=O)c1ccccc1)N1CCCC1", "note": "(stereo not drawn) [α-PVP, alpha-pyrrolidinopentiophenone]", "values": [{"measurement": "MNi frequency fold increase versus negative control", "setting": "[2]", "value": "significant increase in MNi frequency at both concentrations tested"}, {"measurement": "IC50", "setting": "[3]", "value": "> 10000", "unit": "nM"}, {"measurement": "MNi frequency fold increase versus negative control", "setting": "[4]", "value": "no statistically significant increase"}, {"measurement": "neurotransmitters release", "setting": "[5]", "value": "do not enhance neurotransmitters release"}, {"measurement": "IC50", "setting": "[6]", "value": 20, "unit": "nM"}, {"measurement": "Cell viability / cytotoxic effect versus negative control and OECD threshold (55 ± 5%)", "setting": "[7]", "value": "do not induce any cytotoxic or cytostatic effects"}, {"measurement": "Relative Population Doubling (RPD)", "setting": "[8]; 25 µM", "value": "91.5% ± 5.9"}, {"measurement": "Relative Population Doubling (RPD)", "setting": "[8]; 35 µM", "value": "88.4% ± 6.8"}, {"measurement": "Relative Population Doubling (RPD)", "setting": "[8]; 50 µM", "value": "88.7% ± 7.1"}, {"measurement": "Relative Population Doubling (RPD)", "setting": "[8]; 75 µM", "value": "89.9% ± 4.6"}, {"measurement": "Relative Population Doubling (RPD)", "setting": "[8]; 100 µM", "value": "87.6% ± 6.3"}, {"measurement": "Cytostatic effect / RPD versus OECD threshold (55 ± 5%)", "setting": "[8]", "value": "do not induce any cytotoxic or cytostatic effects"}, {"measurement": "IC50", "setting": "[10]", "value": 40, "unit": "nM"}, {"measurement": "number of phase I metabolites identified", "setting": "[18]", "value": 6}, {"measurement": "mitochondrial superoxide production", "setting": "[19]", "value": "statistically significant increase in mitochondrial superoxide production"}, {"measurement": "Apoptosis fold increase versus negative control", "setting": "[11]", "value": "never reached a doubling"}]}
